Test results reported in PMC3117861, “Analysis of Proteasomal Proteolysis during the In Vitro Metacyclogenesis of Trypanosoma cruzi” (PLoS ONE, 2011).
Where a SMILES comes first, the peptide text is derived from it. The star is where a group is joined. Cbz = O=C(OCc1ccccc1)*

Biological target: T1, 20S proteasome (Trypanosoma cruzi, UniProt V5BU39)
T1 construct: gene TCDM_03188; ATP in assay, so 20S and 26S forms not separated; with Proteasome subunit beta type-1; Proteasome subunit beta type-2; Proteasome subunit beta type-3; Proteasome subunit beta type-4; Proteasome subunit beta type-7; Proteasome subunit alpha type-1; Proteasome subunit alpha type-2; Proteasome subunit alpha type-3; Proteasome subunit alpha type-4; Proteasome subunit alpha type-5; Proteasome subunit alpha type-6; Proteasome subunit alpha type-7
Experiment: fluorimetric peptidase assay in crude extract
Assay type: biochemical
Conditions: read-out: % inhibition at 50 μM (chymotrypsin-like activity)

For `CC(C)C[C@@H](C=O)NC(=O)[C@H](CC(C)C)NC(=O)[C@H](CC(C)C)NC(=O)OCc1ccccc1` [MG132] (Cbz-Leu-Leu-Leu-aldehyde), the inhibition at 50 µM was 95%.
